From article PMC5362750, “Discovery of Potent, Selective, and Orally Bioavailable Small-Molecule Modulators of the Mediator Complex-Associated Kinases CDK8 and CDK19” (Journal of Medicinal Chemistry, 2016)
≈ marks a conversion by molar mass, not a printed value. Like-named read-outs stand apart in the source and are kept apart here.

How the values were obtained:
[1] = Thermodynamic solubility determination; assay type: physicochemical; conditions: phosphate buffer, pH 7.4, 37 °C, read-out: Solubility Therm.
[2] = Caco-2 Papp determination; conditions: human, Caco-2, pH 7.4
[3] = In vivo mouse PK; conditions: for Vd / clearance / bioavailability: female, NMRI, plasma; for Vd / clearance: iv; for clearance: Cl; for bioavailability: po, 0.5 mg/kg

SMILES | solubility at 24 h ([1]; pH 7.4, TFA salt) | Papp A→B at 2 h, 1 μM [2] | efflux ratio at 2 h, 1 μM [2] | Vd ([3]; 0.2 mg/kg) | clearance ([3]; 0.2 mg/kg, 0.2 mg/kg iv) | bioavailability [3] | solubility at 24 h ([1]; pH 7.4, free base) | Cl ([3]; 0.2 mg/kg iv, 0.2 mg/kg)
O=C1NCCC12CCN(c1c(Cl)cncc1-c1ccc(-c3cnn(CCO)c3)cc1)CC2 [Compound 17] | 112 µg/mL | 22.7 ×10⁻⁶ cm/s | 19.5 | 1.61 L/kg | 47.2 mL/min/kg | 7% | – | –
CC(C)(O)Cn1cc(-c2ccc(-c3cncc(Cl)c3N3CCC4(CCNC4=O)CC3)cc2)cn1 [Compound 18] | – | 32 ×10⁻⁶ cm/s | 26.1 | 0.8 L/kg | 16.5 mL/min/kg | – | 33 µg/mL (≈ 68.7 µM) | –
CN(C)CCn1cc(-c2ccc(-c3cncc(Cl)c3N3CCC4(CCNC4=O)CC3)cc2)cn1 [Compound 19] | – | 25.4 ×10⁻⁶ cm/s | 12.4 | – | – | – | – | –
O=C1NCCC12CCN(c1c(Cl)cncc1-c1ccc(-c3cnn(CCN4CCCC4)c3)cc1)CC2 [Compound 20] | – | 30.4 ×10⁻⁶ cm/s | 5.3 | – | – | – | – | –
Cc1nc(-c2ccc(-c3cncc(Cl)c3N3CCC4(CCNC4=O)CC3)cc2)cn1C [Compound 21] | 33 µg/mL | 18.8 ×10⁻⁶ cm/s | – | 6.41 L/kg | 278 mL/min/kg | 12% | – | –
CN1c2ccc(-c3cncc(Cl)c3N3CCC4(CCNC4=O)CC3)cc2CS1(=O)=O [Compound 23, 8-(3-Chloro-5-(1-methyl-2,2-dioxido-1,3-dihydrobenzo[c]isothiazol-5-yl)pyridin-4-yl)-2,8-diazaspiro[4.5]decan-1-one] | – | 29 ×10⁻⁶ cm/s | 3.3 | – | – | – | – | –
CN1c2cc(-c3cncc(Cl)c3N3CCC4(CCNC4=O)CC3)ccc2CS1(=O)=O [Compound 24] | – | 33.8 ×10⁻⁶ cm/s | 11 | – | – | – | – | –
Nc1n[nH]c2cc(-c3cncc(Cl)c3N3CCC4(CCNC4=O)CC3)ccc12 [Compound 25, 8-(3-(3-Amino-1H-indazol-6-yl)-5-chloropyridin-4-yl)-2,8-diazaspiro[4.5]decan-1-one] | 540 µg/mL | 0.03 ×10⁻⁶ cm/s | – | 1.21 L/kg | 29.2 mL/min/kg | 5% | – | –
Cn1cc(-c2ccc(-c3cncc(Cl)c3N3CCC4(CC3)CNC(=O)O4)cc2)cn1 [Compound 41] | – | 30.6 ×10⁻⁶ cm/s | 2.4 | – | – | – | – | –
CN1c2ccc(-c3cncc(Cl)c3N3CCC4(CC3)CNC(=O)O4)cc2CS1(=O)=O [Compound 42, 8-(3-Chloro-5-(1-methyl-2,2-dioxido-1,3-dihydrobenzo[c]isothiazol-5-yl)pyridin-4-yl)-1-oxa-3,8-diazaspiro[4.5]decan-2-one] | 53 µg/mL | 16.6 ×10⁻⁶ cm/s | – | 1.34 L/kg | 47.7 mL/min/kg | – | – | –
Cn1cc(-c2ccc(-c3cncc(Cl)c3N3CCC4(CC3)NCNC4=O)cc2)cn1 [Compound 44] | – | 19.1 ×10⁻⁶ cm/s | – | 1.12 L/kg | 51.2 mL/min/kg | 20% | – | –
Cn1cc(-c2ccc(-c3cncc(Cl)c3N3CCC4(CC3)NC(=O)NC4=O)cc2)cn1 [Compound 45] | 39 µg/mL | 15.9 ×10⁻⁶ cm/s | – | 1.26 L/kg | 26 mL/min/kg | 11% | – | –
CN1c2ccc(-c3cncc(Cl)c3N3CCC4(CC3)NC(=O)NC4=O)cc2CS1(=O)=O [Compound 46] | – | 3.3 ×10⁻⁶ cm/s | 126 | – | – | – | – | –
CC1=NC2(CCN(c3c(Cl)cncc3-c3ccc4c(c3)CS(=O)(=O)N4C)CC2)C(=O)N1 [Compound 47] | 613 µg/mL | 19.8 ×10⁻⁶ cm/s | – | 1.96 L/kg | 69.2 mL/min/kg | 9% | – | –
Cn1cc(-c2ccc(-c3cncc(Cl)c3N3CCC4(CC3)NC(=O)CNC4=O)cc2)cn1 [Compound 48] | 8 µg/mL | 6.7 ×10⁻⁶ cm/s | – | 1.84 L/kg | 71.2 mL/min/kg | 5% | – | –
CN(C)CCC1(C#N)CCN(c2c(Cl)cncc2-c2ccc3c(c2)CS(=O)(=O)N3C)CC1 [Compound 51] | – | 35.3 ×10⁻⁶ cm/s | – | – | – | – | – | –

SMILES | solubility at 24 h ([1]; pH 7.4, TFA salt) | Papp A→B at 2 h, 1 μM [2] | efflux ratio at 2 h, 1 μM [2] | Vd ([3]; 0.2 mg/kg) | clearance ([3]; 0.2 mg/kg, 0.2 mg/kg iv) | bioavailability [3] | solubility at 24 h ([1]; pH 7.4, free base) | Cl ([3]; 0.2 mg/kg iv, 0.2 mg/kg)
COCCN1CCCC12CCN(c1c(Cl)cncc1-c1ccc3c(c1)CS(=O)(=O)N3C)CC2 [Compound 54, 5-(5-Chloro-4-(1-(2-methoxyethyl)-1,8-diazaspiro[4.5]decan-8-yl)pyridin-3-yl)-1-methyl-1,3-dihydrobenzo[c]isothiazole 2,2-Dioxide] | – | 34.3 ×10⁻⁶ cm/s | 1.7 | – | – | – | – | –
CN1c2ccc(-c3cncc(F)c3N3CCC4(CCNC4=O)CC3)cc2CS1(=O)=O [Compound 61, 8-(3-Fluoro-5-(1-methyl-2,2-dioxido-1,3-dihydrobenzo[c]isothiazol-5-yl)pyridin-4-yl)-2,8-diazaspiro[4.5]decan-1-one] | – | 32.9 ×10⁻⁶ cm/s | 3 | 1.86 L/kg | 132 mL/min/kg | 5% | – | 132 mL/min/kg
CN1c2ccc(-c3cncc(F)c3N3CCC4(CC3)CNC(=O)O4)cc2CS1(=O)=O [Compound 63, 8-(3-Fluoro-5-(1-methyl-2,2-dioxido-1,3-dihydrobenzo[c]isothiazol-5-yl)pyridin-4-yl)-1-oxa-3,8-diazaspiro[4.5]decan-2-one] | – | 16 ×10⁻⁶ cm/s | 6.5 | 2.67 L/kg | 87.5 mL/min/kg | 27% | – | –
Cn1cc(-c2ccc(-c3cnc(N)c(Cl)c3N3CCC4(CCNC4=O)CC3)cc2)cn1 [Compound 85] | – | 37 ×10⁻⁶ cm/s | 4.9 | 0.74 L/kg | 11.2 mL/min/kg | 61% | – | –
CC(C)(O)Cn1cc(-c2ccc(-c3cnc(N)c(Cl)c3N3CCC4(CCNC4=O)CC3)cc2)cn1 [Compound 86, 8-(2-Amino-3-chloro-5-(4-(1-(2-hydroxy-2-methylpropyl)-1H-pyrazol-4-yl)phenyl)pyridin-4-yl)-2,8-diazaspiro[4.5]decan-1-one] | – | 25.4 ×10⁻⁶ cm/s | 42.7 | 1.22 L/kg | 17.8 mL/min/kg | 7% | – | –
CN1c2ccc(-c3cnc(N)c(Cl)c3N3CCC4(CCNC4=O)CC3)cc2CS1(=O)=O [Compound 88] | – | 19.3 ×10⁻⁶ cm/s | 5.8 | – | – | – | – | –
Cn1cc(-c2ccc(-c3cnc(N)c(Cl)c3N3CCC4(CC3)NC(=O)NC4=O)cc2)cn1 [Compound 91] | < 1 µg/mL | 9.6 ×10⁻⁶ cm/s | – | – | – | – | – | –
CN1c2ccc(-c3cnc(N)c(F)c3N3CCC4(CCNC4=O)CC3)cc2CS1(=O)=O [Compound 92, 8-(2-Amino-3-fluoro-5-(1-methyl-2,2-dioxido-1,3-dihydrobenzo[c]isothiazol-5-yl)pyridin-4-yl)-2,8-diazaspiro[4.5]decan-1-one] | – | 23.9 ×10⁻⁶ cm/s | 29.5 | 0.86 L/kg | 21.3 mL/min/kg | 37% | – | –
CN1c2ccc(-c3cnc(N)c(F)c3N3CCC4(CC3)CNC(=O)O4)cc2CS1(=O)=O [Compound 93] | – | 4 ×10⁻⁶ cm/s | 81 | – | – | – | – | –
Cn1cc(-c2ccc(-c3cnc(N)c(C(F)(F)F)c3N3CCC4(CCNC4=O)CC3)cc2)cn1 [Compound 94] | – | 20.7 ×10⁻⁶ cm/s | – | – | – | – | – | –
CNc1n[nH]c2cc(-c3cncc(Cl)c3N3CCC4(CCNC4=O)CC3)ccc12 [Compound 100, 8-(3-Chloro-5-(3-(methylamino)-1H-indazol-6-yl)pyridin-4-yl)-2,8-diazaspiro[4.5]decan-1-one] | – | 28.8 ×10⁻⁶ cm/s | – | – | – | – | – | –
Cn1nc(N)c2ccc(-c3cncc(Cl)c3N3CCC4(CCNC4=O)CC3)cc21 [Compound 101, 8-(3-(3-Amino-1-methyl-1H-indazol-6-yl)-5-chloropyridin-4-yl)-2,8-diazaspiro[4.5]decan-1-one 2,2,2-Trifluoroacetate] | – | 39 ×10⁻⁶ cm/s | – | – | – | – | – | –
CN(C)c1nn(C)c2cc(-c3cncc(Cl)c3N3CCC4(CCNC4=O)CC3)ccc12 [Compound 102, 8-(3-Chloro-5-(3-(dimethylamino)-1-methyl-1H-indazol-6-yl)pyridin-4-yl)-2,8-diazaspiro[4.5]decan-1-one] | – | 45.9 ×10⁻⁶ cm/s | – | – | – | – | – | –
CN1CNC(=O)C12CCN(c1c(Cl)cncc1-c1ccc(-c3cnn(C)c3)cc1)CC2 [Compound 104] | – | 30.6 ×10⁻⁶ cm/s | – | – | – | – | – | –
CC(C)n1cc(-c2ccc(-c3cnc(N)c(Cl)c3N3CCC4(CCNC4=O)CC3)cc2)cn1 [Compound 108] | – | 37.4 ×10⁻⁶ cm/s | – | – | – | – | – | –
Cn1ncc2cc(-c3cnc(N)c(Cl)c3N3CCC4(CC3)CNC(=O)O4)ccc21 [Compound 110] | – | 33.4 ×10⁻⁶ cm/s | – | – | – | – | – | –
